These results are taken from PubChem BioAssay (NCI).

Test systems include CAKI-1 renal; ACHN renal; SK-MEL-28 melanoma; MOLT-4 leukemia; A549 NSCLC; HCT-116 colon; M14 melanoma; COLO 205 colon; NCI-H23 lung; PC-3 prostate.
Holding throughout (assay): NCI-60 cell line screen, 48 h

Where “and” joins values, the source holds several entries; their conditions need not be identical. Identical values can stand only once.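 Grown in 96-well plates, cells were treated for 48 hours with each compound at five concentrations. Insufficient inhibition: endpoint recorded as highest concentration tested. GI50 is the concentration that inhibits growth by half. Definition used: TGI = concentration required for complete inhibition of growth.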

As for `C[C@]12CC[C@H](O)CC1=CC[C@@H]1[C@@H]2CC[C@]2(C)C(c3cccnc3)=CC[C@@H]12`, the GI50 with CAKI-1 renal is over 100 µM; in the test with ACHN renal it was 18.7 µM; in the test on SK-MEL-28 melanoma it was 61.3 µM; with MOLT-4 leukemia, over 38.5 µM; with A549 NSCLC, over 100 µM; in the test on HCT-116 colon it was 19.2 µM. Also, the GI50 with M14 melanoma is over 100 µM; in the test on COLO 205 colon it was over 100 µM; in the test on NCI-H23 lung, 12.2 µM; with PC-3 prostate, over 100 µM. Also, the TGI in the test on CAKI-1 renal, in the test with ACHN renal, in the test with SK-MEL-28 melanoma, in the test with MOLT-4 leukemia, with A549 NSCLC and in the test with HCT-116 colon was over 100 µM in each case. The TGI in the test with M14 melanoma, with COLO 205 colon, in the test on NCI-H23 lung and in the test on PC-3 prostate was over 100 µM in each case.

As for `Cc1c(C(=O)N/N=C/c2ccc(Cl)cc2)nnn1-c1ccnc2c(C(F)(F)F)cccc12`, the GI50 in the test with CAKI-1 renal is 17.6 µM; with ACHN renal, 2.02 µM; in the test with SK-MEL-28 melanoma, 14.4 µM; with MOLT-4 leukemia, 6.39 µM; with A549 NSCLC, 2.1 µM; in the test with HCT-116 colon, 2.31 µM. Also, the GI50 with M14 melanoma was 4.45 µM; in the test on COLO 205 colon, 1.55 µM; in the test with NCI-H23 lung, 13.5 µM; in the test on PC-3 prostate, 3.04 µM. Further, the TGI turned out to be 45.1 µM in the test with CAKI-1 renal; 3.95 µM in the test with ACHN renal; 38.5 µM in the test with SK-MEL-28 melanoma; 35.3 µM with MOLT-4 leukemia; 4.63 µM in the test with A549 NSCLC; 5.42 µM with HCT-116 colon. For the same compound, the TGI was 18.9 µM in the test with M14 melanoma, 3.58 µM with COLO 205 colon, 35.9 µM in the test with NCI-H23 lung and 11.3 µM in the test with PC-3 prostate.

Turning to `O=C(NCCOCCOCCNc1cccc2c1C(=O)N(C1CCCNC1=O)C2=O)c1cc2c(o1)C(=O)c1ccccc1C2=O` (centres undefined), the GI50 in the test with CAKI-1 renal was 2.75 µM; with ACHN renal it was 2.29 µM; in the test on SK-MEL-28 melanoma it was 2.31 µM; in the test on MOLT-4 leukemia, 2.4 µM; in the test with A549 NSCLC, 2.11 µM; in the test on HCT-116 colon it was 2.06 µM. Further, the GI50 in the test on M14 melanoma was 0.772 µM; with COLO 205 colon, 2.1 µM; with NCI-H23 lung, 0.313 µM; in the test on PC-3 prostate, 2.63 µM. In addition, the TGI was found to be 9.3 µM in the test on CAKI-1 renal; 6.5 µM with ACHN renal; 4.61 µM in the test on SK-MEL-28 melanoma; 6.01 µM in the test on MOLT-4 leukemia; 4.8 µM with A549 NSCLC; 5.54 µM in the test with HCT-116 colon. For the same compound, the TGI in the test on M14 melanoma amounted to 2.18 µM; in the test with COLO 205 colon it was 4.12 µM; with NCI-H23 lung it was 1.79 µM; in the test with PC-3 prostate it was 46 µM.

On to `CCOC(=O)/C=C(/C(=O)OCC)n1cc(Cl)c(=O)n(CC(=O)OCC)c1=O`, for which the TGI in the test with CAKI-1 renal is 7.64 µM and 5.5 µM; in the test with ACHN renal it was 7.35 µM and 6.22 µM; in the test with SK-MEL-28 melanoma it was 10.5 µM and 42.2 µM; in the test with MOLT-4 leukemia it was 25 µM and 10.5 µM; in the test with A549 NSCLC, 18.1 µM and 67 µM; in the test on HCT-116 colon it was 9.67 µM and 28 µM. Further, the TGI was 10.4 µM and 40.2 µM in the test with M14 melanoma; 2.81 µM and 2.59 µM with COLO 205 colon; 10.8 µM and 41.5 µM with NCI-H23 lung; 9.64 µM and 34.6 µM in the test with PC-3 prostate. Moreover, the GI50 is 2.55 µM in the test on ACHN renal; 20.3 µM in the test on SK-MEL-28 melanoma; 3.29 µM in the test on MOLT-4 leukemia; 23.4 µM in the test with A549 NSCLC; 13.7 µM in the test on HCT-116 colon; 18 µM in the test with M14 melanoma. Besides, the GI50 is 1.32 µM with COLO 205 colon, 20 µM with NCI-H23 lung and 19.5 µM with PC-3 prostate.

As for `O=C(Nc1ccc(N2CCNCC2)cc1)c1[nH]ncc1Nc1cc(Oc2ccccc2)ncn1`, the GI50 is 1.21 µM with CAKI-1 renal; 0.213 µM with ACHN renal; 2.26 µM with SK-MEL-28 melanoma; 2.05 µM in the test with MOLT-4 leukemia; 1.07 µM in the test with A549 NSCLC; 1.42 µM in the test with HCT-116 colon. For the same compound, the GI50 was 1.55 µM with M14 melanoma, 1.19 µM in the test with COLO 205 colon, 2.12 µM with NCI-H23 lung and 1.47 µM with PC-3 prostate. In addition, the TGI was 3.39 µM in the test with CAKI-1 renal; 0.479 µM in the test with ACHN renal; 5.75 µM with SK-MEL-28 melanoma; 5.28 µM with MOLT-4 leukemia; 2.95 µM in the test with A549 NSCLC; 2.99 µM with HCT-116 colon. Moreover, the TGI with M14 melanoma worked out at 3.19 µM; in the test with COLO 205 colon, 2.78 µM; with NCI-H23 lung it was 7.85 µM; with PC-3 prostate, 3.2 µM.

For the compound `Cc1ccc2c(c1)C(=O)/C(=C/c1ncc([N+](=O)[O-])n1C)O2`, the GI50 is 0.665 µM with CAKI-1 renal; 0.489 µM with ACHN renal; 2.34 µM with SK-MEL-28 melanoma; 0.5 µM in the test on MOLT-4 leukemia; 2.74 µM with A549 NSCLC; 0.282 µM with HCT-116 colon. The GI50 with M14 melanoma is 1.11 µM; in the test on COLO 205 colon it was 1.99 µM; in the test on NCI-H23 lung it was 2.28 µM; in the test with PC-3 prostate, 2.35 µM. Also, the TGI was found to be 7.54 µM with CAKI-1 renal; 9.11 µM with ACHN renal; 7.29 µM in the test with SK-MEL-28 melanoma; 7.43 µM in the test with MOLT-4 leukemia; 9.29 µM in the test with A549 NSCLC; 0.886 µM in the test on HCT-116 colon. The TGI in the test with M14 melanoma was 4.9 µM; in the test on COLO 205 colon, 5.09 µM; with NCI-H23 lung, 6.56 µM; in the test with PC-3 prostate, over 24.9 µM.

With `Cc1cc(I)cc(CNCCCN2CCSCC2)c1O`, the GI50 was 15.1 µM in the test on CAKI-1 renal; 17.5 µM with ACHN renal; 17 µM in the test with SK-MEL-28 melanoma; 15.1 µM with MOLT-4 leukemia; 18.7 µM in the test with A549 NSCLC; 11.1 µM in the test on HCT-116 colon. Besides, the GI50 is 13.9 µM in the test on M14 melanoma, 15 µM in the test with COLO 205 colon, 20.9 µM with NCI-H23 lung and 17.7 µM in the test on PC-3 prostate. Moreover, the TGI is 32.7 µM in the test on CAKI-1 renal; 33.8 µM with ACHN renal; 32.4 µM in the test with SK-MEL-28 melanoma; 33.9 µM with MOLT-4 leukemia; 39.2 µM in the test with A549 NSCLC; 23 µM in the test on HCT-116 colon. In addition, the TGI in the test with M14 melanoma came to 28.4 µM; in the test on COLO 205 colon, 30.8 µM; in the test with NCI-H23 lung it was 63.7 µM; in the test on PC-3 prostate, 36.3 µM.
